Laboratory results taken from US10550111B2, “Pyrimidine urea compound containing isoxazolines and use thereof” (SHENYANG SINOCHEM AGROCHEMICALS R&D CO., LTD, priority 2014, dated 2020).

Key:
Type in all cases: in vivo
[1] = test system: broad-leaf weeds and grass weeds; test: General screening of herbicidal activity in greenhouse; conditions: 1000 g a.i./hm^2;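 further: 0 means no visible effect and 100 means all weeds dead or not emerged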
Procedure: (§1) Determination of herbicidal activity of compounds of the present invention against weeds was carried out by the following procedures:
(§2) Seeds of monocotyledonous and dicotyledonous weeds were sown in nutrition soil in paper pot (7 cm diameter), covered with soil in 1 cm and grown in the greenhouse under good growth conditions (temperature, atmospheric humidity, water supply). The compounds of the present invention as emulsifiable concentrate, were applied in pre-emergence and post-emergence treatment by track sprayer (Engineer Research Ltd., pressure 1.95 kg/cm^2, volume 500 L/hm^2, track speed 1.48 km/h). Pre-emergence treatment was conducted after seeding 24 hours and post-emergence treatment was done when the respective weeds reached predetermined leaf stage (grass weed 2- to 3-leaf stage, broad-leaf weed 2- to 4-leaf stage), the state of growth of the respective weeds were visually observed to determine the growth inhibition rate (%) in accordance with the following evaluation standard.
(§3) Growth inhibition rate (%): 0=no discernible action: 100=all weeds dead or not emerged.

Zinnia elegans Jacq. = test: Bioassay of herbicidal activity in greenhouse (further screening)
Procedure: as §1, §2, §3

[2] = test system: Setaria glauca (L.) Beauv.; test: as above
Procedure: as §1, §2, §3

[3] = test system: Abutilon theophrasti Medic.; test: as above
Procedure: as §1, §2, §3

[4] = test system: Echinochloa crus-galli (L.) Beauv.; test: as above
Procedure: as §1, §2, §3

With `Cn1c(C(F)(F)F)cc(=O)n(-c2ccc(Cl)c(C3=NOC(C)(C(=O)O)C3)c2)c1=O` (stereo not drawn) [Compound 282] as the compound, how does the “pre-emergence and post-emergence herbicidal activity against broad-leaf weeds and grass weeds” value [1] read?
The value was “good”.

Which results are given for `CCCCOC(=O)C1(C)CC(c2cc(-n3c(=O)cc(C(F)(F)F)n(C)c3=O)ccc2Cl)=NO1` (stereo not drawn) [Compound 286]?
pre-emergence and post-emergence herbicidal activity against broad-leaf weeds and grass weeds [1]: good; Growth inhibition rate, Post-emergence treatment, Zinnia elegans Jacq. (Zinnia elegans Jacq.; dose 37.5 g a.i./hm^2): 85%; Growth inhibition rate, Post-emergence treatment, Zinnia elegans Jacq. (Zinnia elegans Jacq.; dose 150 g a.i./hm^2): 100%; Growth inhibition rate, Post-emergence treatment, Zinnia elegans Jacq. (Zinnia elegans Jacq.; dose 600 g a.i./hm^2): 100%; Growth inhibition rate, Pre-emergence treatment, Zinnia elegans Jacq. (Zinnia elegans Jacq.; dose 37.5 g a.i./hm^2): 0%; Growth inhibition rate, Pre-emergence treatment, Zinnia elegans Jacq. (Zinnia elegans Jacq.; dose 150 g a.i./hm^2): 0%; Growth inhibition rate, Pre-emergence treatment, Zinnia elegans Jacq. (Zinnia elegans Jacq.; dose 600 g a.i./hm^2): 10%; Growth inhibition rate, Post-emergence treatment, Setaria glauca (L.) Beauv. ([2]; dose 37.5 g a.i./hm^2): 15%; Growth inhibition rate, Post-emergence treatment, Setaria glauca (L.) Beauv. ([2]; dose 150 g a.i./hm^2): 70%; Growth inhibition rate, Post-emergence treatment, Setaria glauca (L.) Beauv. ([2]; dose 600 g a.i./hm^2): 75%; Growth inhibition rate, Pre-emergence treatment, Setaria glauca (L.) Beauv. ([2]; dose 37.5 g a.i./hm^2): 0%; Growth inhibition rate, Pre-emergence treatment, Setaria glauca (L.) Beauv. ([2]; dose 150 g a.i./hm^2): 10%; Growth inhibition rate, Pre-emergence treatment, Setaria glauca (L.) Beauv. ([2]; dose 600 g a.i./hm^2): 30%; Growth inhibition rate, Post-emergence treatment, Abutilon theophrasti Medic. ([3]; dose 37.5 g a.i./hm^2): 90%; Growth inhibition rate, Post-emergence treatment, Abutilon theophrasti Medic. ([3]; dose 150 g a.i./hm^2): 100%; Growth inhibition rate, Post-emergence treatment, Abutilon theophrasti Medic. ([3]; dose 600 g a.i./hm^2): 100%; Growth inhibition rate, Pre-emergence treatment, Abutilon theophrasti Medic. ([3]; dose 37.5 g a.i./hm^2): 0%; Growth inhibition rate, Pre-emergence treatment, Abutilon theophrasti Medic. ([3]; dose 150 g a.i./hm^2): 0%; Growth inhibition rate, Pre-emergence treatment, Abutilon theophrasti Medic. ([3]; dose 600 g a.i./hm^2): 15%; Growth inhibition rate, Post-emergence treatment, Echinochloa crus-galli (L.) Beauv. ([4]; dose 37.5 g a.i./hm^2): 20%; Growth inhibition rate, Post-emergence treatment, Echinochloa crus-galli (L.) Beauv. ([4]; dose 150 g a.i./hm^2): 60%; Growth inhibition rate, Post-emergence treatment, Echinochloa crus-galli (L.) Beauv. ([4]; dose 600 g a.i./hm^2): 75%; Growth inhibition rate, Pre-emergence treatment, Echinochloa crus-galli (L.) Beauv. ([4]; dose 37.5 g a.i./hm^2): 0%; Growth inhibition rate, Pre-emergence treatment, Echinochloa crus-galli (L.) Beauv. ([4]; dose 150 g a.i./hm^2): 5%; Growth inhibition rate, Pre-emergence treatment, Echinochloa crus-galli (L.) Beauv. ([4]; dose 600 g a.i./hm^2): 15%

What does the source list for `CC(=O)OCCOC(=O)C1(C)CC(c2cc(-n3c(=O)cc(C(F)(F)F)n(C)c3=O)c(F)cc2Cl)=NO1` (stereo not drawn) [Compound 17]?
pre-emergence and post-emergence herbicidal activity against broad-leaf weeds and grass weeds [1]: good; Growth inhibition rate, Post-emergence treatment, Zinnia elegans Jacq. (Zinnia elegans Jacq.; dose 7.5 g a.i./hm^2): 45%; Growth inhibition rate, Post-emergence treatment, Zinnia elegans Jacq. (Zinnia elegans Jacq.; dose 15 g a.i./hm^2): 55%; Growth inhibition rate, Post-emergence treatment, Zinnia elegans Jacq. (Zinnia elegans Jacq.; dose 30.0 g a.i./hm^2): 65%; Growth inhibition rate, Post-emergence treatment, Zinnia elegans Jacq. (Zinnia elegans Jacq.; dose 60.0 g a.i./hm^2): 90%; Growth inhibition rate, Post-emergence treatment, Zinnia elegans Jacq. (Zinnia elegans Jacq.; dose 120.0 g a.i./hm^2): 100%; Growth inhibition rate, Post-emergence treatment, Zinnia elegans Jacq. (Zinnia elegans Jacq.; dose 600 g a.i./hm^2): 100%; Growth inhibition rate, Pre-emergence treatment, Zinnia elegans Jacq. (Zinnia elegans Jacq.; dose 600 g a.i./hm^2): 90%; Growth inhibition rate, Post-emergence treatment, Setaria glauca (L.) Beauv. ([2]; dose 7.5 g a.i./hm^2): 55%; Growth inhibition rate, Post-emergence treatment, Setaria glauca (L.) Beauv. ([2]; dose 15 g a.i./hm^2): 60%; Growth inhibition rate, Post-emergence treatment, Setaria glauca (L.) Beauv. ([2]; dose 30.0 g a.i./hm^2): 100%; Growth inhibition rate, Post-emergence treatment, Setaria glauca (L.) Beauv. ([2]; dose 60.0 g a.i./hm^2): 100%; Growth inhibition rate, Post-emergence treatment, Setaria glauca (L.) Beauv. ([2]; dose 120.0 g a.i./hm^2): 100%; Growth inhibition rate, Post-emergence treatment, Setaria glauca (L.) Beauv. ([2]; dose 600 g a.i./hm^2): 100%; Growth inhibition rate, Pre-emergence treatment, Setaria glauca (L.) Beauv. ([2]; dose 600 g a.i./hm^2): 85%; Growth inhibition rate, Post-emergence treatment, Abutilon theophrasti Medic. ([3]; dose 7.5 g a.i./hm^2): 95%; Growth inhibition rate, Post-emergence treatment, Abutilon theophrasti Medic. ([3]; dose 15 g a.i./hm^2): 98%; Growth inhibition rate, Post-emergence treatment, Abutilon theophrasti Medic. ([3]; dose 30.0 g a.i./hm^2): 100%; Growth inhibition rate, Post-emergence treatment, Abutilon theophrasti Medic. ([3]; dose 60.0 g a.i./hm^2): 100%; Growth inhibition rate, Post-emergence treatment, Abutilon theophrasti Medic. ([3]; dose 120.0 g a.i./hm^2): 100%; Growth inhibition rate, Post-emergence treatment, Abutilon theophrasti Medic. ([3]; dose 600 g a.i./hm^2): 100%; Growth inhibition rate, Pre-emergence treatment, Abutilon theophrasti Medic. ([3]; dose 600 g a.i./hm^2): 90%; Growth inhibition rate, Post-emergence treatment, Echinochloa crus-galli (L.) Beauv. ([4]; dose 7.5 g a.i./hm^2): 30%; Growth inhibition rate, Post-emergence treatment, Echinochloa crus-galli (L.) Beauv. ([4]; dose 15 g a.i./hm^2): 60%; Growth inhibition rate, Post-emergence treatment, Echinochloa crus-galli (L.) Beauv. ([4]; dose 30.0 g a.i./hm^2): 100%; Growth inhibition rate, Post-emergence treatment, Echinochloa crus-galli (L.) Beauv. ([4]; dose 60.0 g a.i./hm^2): 100%; Growth inhibition rate, Post-emergence treatment, Echinochloa crus-galli (L.) Beauv. ([4]; dose 120.0 g a.i./hm^2): 100%; Growth inhibition rate, Post-emergence treatment, Echinochloa crus-galli (L.) Beauv. ([4]; dose 600 g a.i./hm^2): 100%; Growth inhibition rate, Pre-emergence treatment, Echinochloa crus-galli (L.) Beauv. ([4]; dose 600 g a.i./hm^2): 95%

For `Cn1c(C(F)(F)F)cc(=O)n(-c2ccc(Cl)c(C3=NOC(C)(CO)C3)c2)c1=O` (stereo not drawn) [Compound 320], which “pre-emergence and post-emergence herbicidal activity against broad-leaf weeds and grass weeds” value [1] is on record?
Its value is “good”.

With `CNC(=O)C1(C)CC(c2cc(-n3c(=O)cc(C(F)(F)F)n(C)c3=O)c(F)cc2Cl)=NO1` (stereo not drawn) [Compound 23] as the compound, how does the “pre-emergence and post-emergence herbicidal activity against broad-leaf weeds and grass weeds” value [1] read?
Its value is “good”.
